Measured values from EPA's ToxRefDB 2.

Legend:
mouse [1] = details: Multigenerational reproductive toxicity study; cd1; Oral; Feed; dose end: 1 generation; group: parental; systemic / in life observation / food consumption / food consumption
rat [2] = details: Prenatal developmental toxicity study; other; Oral; Gavage/Intubation; dose end: 19 GD; group: developmental; developmental / developmental malformation / ureter / hydroureter
rat [3] = details: Prenatal developmental toxicity study, Osborne-Mendel, Oral, Water, dose end: 20 GD
rat [4] = details: Combined chronic toxicity/carcinogenicity; sprague dawley; Oral; Feed; dose end: 118 week; group: systemic; systemic / in life observation / clinical signs / feces, discoloration
mouse [5] = details: Combined chronic toxicity/carcinogenicity, cd1, Oral, Feed, dose end: 104 week, group: systemic
rat [6] = details: Multigenerational reproductive toxicity study, sprague dawley, Oral, Feed, dose end: 1 generation
mouse [7] = details: Carcinogenicity, b6c3f1, Oral, Feed, dose end: 2 year, group: systemic
dog [8] = details: Subchronic oral toxicity in nonrodent, beagle, [Not Specified], dose end: 4 week, group: systemic, systemic / clinical chemistry / alanine aminotransferase (alt/sgpt) / alanine aminotransferase (alt/sgpt) + systemic / clinical chemistry / …
rat [9] = details: Prenatal developmental toxicity study, wistar, Oral, Gavage/Intubation, dose end: 15 GD
dog [10] = details: Chronic toxicity; beagle; Oral; Feed; dose end: 52 week; group: systemic; systemic / clinical chemistry / cholesterol / cholesterol + systemic / clinical chemistry / creatinine / creatinine + systemic / clinical …
dog [11] = details: Chronic toxicity, beagle, Oral, Feed, dose end: 12 month, group: systemic
rat [12] = details: Combined chronic toxicity/carcinogenicity; wistar; Oral; Feed; dose end: 2 year; group: systemic; systemic / clinical chemistry / alanine aminotransferase (alt/sgpt) / alanine aminotransferase (alt/sgpt) + systemic / clinical chemistry / …
rat [13] = details: Subchronic oral toxicity in rodents, wistar, Feed, dose end: 91 day, group: systemic, systemic / clinical chemistry / alanine aminotransferase (alt/sgpt) / alanine aminotransferase (alt/sgpt) + systemic / clinical chemistry / …
dog [14] = details: Subchronic oral toxicity in nonrodent, beagle, Feed, dose end: 90 day, group: systemic
rat [15] = details: Subchronic oral toxicity in rodents, wistar, Feed, dose end: 90 day, group: systemic
rat [16] = details: Combined chronic toxicity/carcinogenicity, sprague dawley, Oral, Feed, dose end: 24 month, group: systemic
rabbit [17] = details: Prenatal developmental toxicity study, new zealand white, Oral, Gavage/Intubation, dose end: 18 GD
dog [18] = details: Chronic toxicity; beagle; Oral; Feed; dose end: 52 week; group: systemic; systemic / hematology / erythrocyte (rbc) count differential / erythrocyte (rbc) + systemic / hematology / platelet / platelet + systemic / …
rat [19] = details: Multigenerational reproductive toxicity study, sprague dawley, Oral, Feed, dose end: 2 generation
rabbit [20] = details: Prenatal developmental toxicity study, new zealand white, Oral, Gavage/Intubation, dose end: 19 GD
rat [21] = details: Prenatal developmental toxicity study, sprague dawley, Oral, Gavage/Intubation, dose end: 15 GD
[22] = group: developmental, developmental / developmental malformation / bone / bipartite ossification + developmental / developmental malformation / bone / incomplete …
[23] = group: maternal, systemic / in life observation / water consumption / water consumption + reproductive / reproductive performance / reproductive performance …
[24] = systemic / organ weight / thyroid gland / absolute + systemic / organ weight / thyroid gland / relative to body weight
[25] = group: offspring, developmental / developmental landmark / vaginal opening / vaginal opening + systemic / in life observation / clinical signs / nocturnal …
[26] = group: offspring, developmental / offspring survival late / [other] / [other] + developmental / developmental landmark / vaginal opening / vaginal opening + …
[27] = group: parental, systemic / in life observation / body weight / body weight
[28] = group: reproductive, reproductive / reproductive performance / pregnancy / pregnancy
[29] = group: developmental, developmental / developmental malformation / bone / incomplete ossification + developmental / developmental malformation / bone / …
[30] = group: maternal, systemic / in life observation / body weight / body weight gain + systemic / in life observation / food consumption / food consumption + …
[31] = systemic / clinical chemistry / cholesterol / cholesterol + systemic / clinical chemistry / creatinine / creatinine + systemic / clinical …
[32] = systemic / pathology microscopic / pituitary gland / cyst
[33] = systemic / clinical chemistry / [other] / [other]
[34] = systemic / clinical chemistry / [other] / [other] + systemic / clinical chemistry / alanine aminotransferase (alt/sgpt) / alanine …
[35] = systemic / hematology / blood clotting / blood clotting - clotting time + systemic / organ weight / kidney / absolute + systemic / organ …
[36] = systemic / clinical chemistry / calcium / calcium + systemic / clinical chemistry / protein / protein + systemic / in life observation / …
[37] = systemic / organ weight / liver / relative to body weight
[38] = group: developmental, developmental / developmental malformation / bone / delayed ossification + developmental / developmental malformation / bone / fused + …
[39] = group: maternal, reproductive / offspring survival early / live fetuses / live fetuses + systemic / organ weight / uterus / nos
[40] = group: offspring, systemic / in life observation / body weight / offspring (pup) weight
[41] = group: parental, systemic / in life observation / body weight / body weight + systemic / in life observation / body weight / body weight gain + systemic / in…
[42] = group: developmental, developmental / developmental malformation / bone / fused
[43] = group: maternal, systemic / in life observation / body weight / body weight gain
[44] = group: developmental, developmental / developmental malformation / bone / incomplete ossification
[45] = group: maternal, systemic / in life observation / clinical signs / alopecia + systemic / in life observation / clinical signs / blood around eyes and nose + …

## COc1cc(S(=O)(=O)[O-])c(C)cc1N=Nc1c(O)ccc2cc(S(=O)(=O)[O-])ccc12.[Na+].[Na+]
Mouse [1]
  LEL: 2930 mg/kg/day
  LOAEL: > 2930 mg/kg/day
  NEL: 1420 mg/kg/day
  NOAEL: ≥ 2930 mg/kg/day
Rat [2]
  LEL: 200 mg/kg/day
  LOAEL: > 200 mg/kg/day
  NEL: 100 mg/kg/day
  NOAEL: ≥ 200 mg/kg/day
Rat [3]; [22]
  LEL: 260 mg/kg/day
  LOAEL: > 260 mg/kg/day
  NEL: < 260 mg/kg/day
  NOAEL: ≥ 260 mg/kg/day
Rat [3]; [23]
  LEL: 260 mg/kg/day
  LOAEL: > 260 mg/kg/day
  NEL: < 260 mg/kg/day
  NOAEL: ≥ 260 mg/kg/day
Rat [4]
  LEL: 701 mg/kg/day
  LOAEL: > 2830 mg/kg/day
  NEL: 180 mg/kg/day
  NOAEL: ≥ 2830 mg/kg/day
Mouse [5]; systemic / in life observation / food consumption / food consumption
  LEL: 1880 mg/kg/day
Mouse [5]; systemic / in life observation / food consumption / food consumption + systemic / pathology microscopic / lymph node / lymphoma nos
  NEL: 507 mg/kg/day
Mouse [5]; [24]
  LOAEL: > 7320 mg/kg/day
  NOAEL: ≥ 7320 mg/kg/day
Rat [6]; [25]
  LEL: 1250 mg/kg/day
  NEL: < 1250 mg/kg/day
Rat [6]; [26]
  LOAEL: > 5000 mg/kg/day
  NOAEL: ≥ 5000 mg/kg/day
Rat [6]; [27]
  LEL: 1250 mg/kg/day
  LOAEL: > 5000 mg/kg/day
  NEL: < 1250 mg/kg/day
  NOAEL: ≥ 5000 mg/kg/day
Rat [6]; [28]
  LEL: 1250 mg/kg/day
  LOAEL: > 5000 mg/kg/day
  NEL: < 1250 mg/kg/day
  NOAEL: ≥ 5000 mg/kg/day

## Cc1cc(Cl)ccc1OCC(=O)O [MCPA]
Mouse [7]; systemic / in life observation / body weight / body weight
  LEL: 15.7 mg/kg/day
Mouse [7]; systemic / in life observation / body weight / body weight + systemic / pathology microscopic / kidney / casts protein + systemic / …
  NEL: 3.2 mg/kg/day
Mouse [7]; systemic / pathology microscopic / kidney / hyperplasia
  LOAEL: 19.5 mg/kg/day
Mouse [7]; systemic / pathology microscopic / kidney / hyperplasia + systemic / in life observation / body weight / body weight + systemic / organ …
  NOAEL: 3.9 mg/kg/day
Dog [8]
  LEL: 8 mg/kg/day
  LOAEL: 8 mg/kg/day
  NEL: < 8 mg/kg/day
  NOAEL: < 8 mg/kg/day
Rat [9]; [29]
  LEL: 120 mg/kg/day
  LOAEL: 120 mg/kg/day
  NEL: 60 mg/kg/day
  NOAEL: 60 mg/kg/day
Rat [9]; [30]
  LEL: 120 mg/kg/day
  LOAEL: 120 mg/kg/day
  NEL: 60 mg/kg/day
  NOAEL: 60 mg/kg/day
Dog [10]
  LEL: 1.02 mg/kg/day
  LOAEL: 1.02 mg/kg/day
  NEL: 0.21 mg/kg/day
  NOAEL: 0.21 mg/kg/day
Dog [11]; [31]
  LOAEL: 1.02 mg/kg/day
  NOAEL: 0.21 mg/kg/day
Dog [11]; [32]
  LEL: 0.2 mg/kg/day
  NEL: < 0.2 mg/kg/day
Rat [12]
  LEL: 5.7 mg/kg/day
  LOAEL: 5.7 mg/kg/day
  NEL: 1.4 mg/kg/day
  NOAEL: 1.4 mg/kg/day
Rat [13]
  LEL: 177 mg/kg/day
  LOAEL: 177 mg/kg/day
  NEL: 34 mg/kg/day
  NOAEL: 34 mg/kg/day
Dog [14]; [33]
  LEL: 3 mg/kg/day
  LOAEL: 3 mg/kg/day
Dog [14]; [34]
  NEL: 1 mg/kg/day
  NOAEL: 1 mg/kg/day
Rat [15]; [35]
  LOAEL: 32.6 mg/kg/day
  NEL: 3.6 mg/kg/day
  NOAEL: 10.9 mg/kg/day
Rat [15]; systemic / organ weight / kidney / absolute
  LEL: 10.9 mg/kg/day

## C#CCOS(=O)OC1CCCCC1Oc1ccc(C(C)(C)C)cc1 (stereo unspecified) [Propargite]
Rat [16]; [36]
  LOAEL: 19.2 mg/kg/day
  NOAEL: 3.83 mg/kg/day
Rat [16]; [37]
  LEL: 2.95 mg/kg/day
  NEL: < 2.95 mg/kg/day
Rabbit [17]; group: developmental, developmental / developmental malformation / bone / delayed ossification
  LEL: 6 mg/kg/day
Rabbit [17]; [38]
  LOAEL: > 18 mg/kg/day
  NEL: 2 mg/kg/day
  NOAEL: ≥ 18 mg/kg/day
Rabbit [17]; [39]
  LEL: 2 mg/kg/day
  NEL: < 2 mg/kg/day
Rabbit [17]; group: maternal, systemic / in life observation / body weight / body weight gain + reproductive / offspring survival early / live fetuses / live fetuses
  LOAEL: 6 mg/kg/day
Rabbit [17]; group: maternal, systemic / in life observation / body weight / body weight gain + reproductive / reproductive performance / implantations / implantations + …
  NOAEL: 2 mg/kg/day
Dog [18]
  LEL: 38 mg/kg/day
  LOAEL: 38 mg/kg/day
  NEL: 5 mg/kg/day
  NOAEL: 5 mg/kg/day
Rat [19]; [40]
  LEL: 40 mg/kg/day
  LOAEL: 40 mg/kg/day
  NEL: 20 mg/kg/day
  NOAEL: 20 mg/kg/day
Rat [19]; [41]
  LEL: 20 mg/kg/day
  LOAEL: 20 mg/kg/day
  NEL: 4 mg/kg/day
  NOAEL: 4 mg/kg/day
Rabbit [20]; [42]
  LEL: 10 mg/kg/day
  LOAEL: 10 mg/kg/day
  NEL: 8 mg/kg/day
  NOAEL: 8 mg/kg/day
Rabbit [20]; [43]
  LEL: 8 mg/kg/day
  LOAEL: 8 mg/kg/day
  NEL: 6 mg/kg/day
  NOAEL: 6 mg/kg/day
Rat [21]; group: developmental, developmental / developmental malformation / bone / absent + developmental / developmental malformation / bone / small
  LOAEL: 25 mg/kg/day
Rat [21]; [44]
  LEL: 6 mg/kg/day
  NEL: < 6 mg/kg/day
Rat [21]; group: developmental, developmental / developmental malformation / bone / incomplete ossification + developmental / developmental malformation / bone / absent + …
  NOAEL: 6 mg/kg/day
Rat [21]; [45]
  LEL: 105 mg/kg/day
  LOAEL: > 450 mg/kg/day
  NEL: 25 mg/kg/day
  NOAEL: ≥ 450 mg/kg/day
